The results in this text go back to patent publication US8399414B2, “Analgesics” (NRL Pharma, Inc., priority 2002, dated 2013).

The test system of assay [1] is volunteers affected by frozen shoulder. In words: frozen shoulder volunteers, oral enteric coated tablets (Example 11). Type of assay: in vivo, human. The procedure: Three male volunteers […], each of who was affected frozen shoulder and could not raise either one of their hands above the shoulder, took orally the enteric coated tablets of lactoferrin from bovine milk (Production Example 4). […] They took lactoferrin in a daily dose of 450 mg in 3 uniformly divided portions after each meal. […] disappeared and was cured in one volunteer on day 7 after the initial administration and in the other volunteers on day 12 and on day 23 after the same, respectively.

Assay [2] deals with patients with osteoarthritis. Nature of the assay: osteoarthritis patients, oral enteric coated tablets (Example 9). Type of assay: in vivo, human. Conditions: diclofenac in the former, ibuprofen in the latter. How it is done: Lactoferrin extracted from bovine milk was formed into enteric coated tablets (Production Example 4) and given orally to a person whose right knee and right elbow were affected by osteoarthritis associated with the injuries caused by their falling off a bicycle and a person whose knee joints were affected by osteoarthritis associated with obesity. Lactoferrin was administered at a dose of 150 mg (450 mg per day) 3 times a day after each meal.

In assay [3] the test system is male Wistar rats. Nature of the assay: formalin test, comparison with diclofenac (Example 3). Type of assay: in vivo, rat. The settings on record: i.p. 30 minutes before formalin. The procedure:
Male Wistar rats 6 weeks of age were used. The rats in one group were given bovine lactoferrin and those in another group were given a control drug, diclofenac, by intraperitoneal administration 30 minutes before injecting formalin into their foot pads. Their responses to pain are shown in FIG. 5: the phase 1 pain (left) and the phase 2 pain (right).
Lactoferrin and diclofenac were administered intraperitoneally 30 minutes before formalin injection both in the control group (n=4) and the diclofenac group (n=5). The pain inhibiting effect of diclofenac disappeared about 50 minutes after formalin injection, whereas the pain inhibiting effect of lactoferrin lasted long and even 60 minutes after formalin injection.

Assay [4] relates to male Wistar rats. In words: formalin test, intrathecal administration, comparison with morphine (Example 12). It is filed as in vivo. The settings on record: 30 minutes before formalin, bLF 0.1 to 100 μg/rat, rhLF 100 μg/rat, morphine 10 μg/rat, FIGS. 15. The procedure: Groups consisting of male Wistar rats 6 weeks of age (n=6 to 8) were intrathecally administered 0.1 to 100 μg/rat of bovine lactoferrin (bLF), 100 μg/rat of recombinant human lactoferrin (rhLF) or 10 μg/rat of morphine (Mor) 30 minutes before formalin was injected into their foot pads. The results are shown in FIGS. 15: the number of the foot-lifting times in the phase 1 pain (left graph) and the number of the foot-lifting times in the phase 2 pain (right graph).

As to `O=C(O)Cc1ccccc1Nc1c(Cl)cccc1Cl` [diclofenac, reference compound], in assay [1], the “response to earlier treatment” value is “failed to respond”. For the same compound, the “response to earlier treatment” value in assay [2] is given as “failed to respond”. Also, in assay [3] (FIG. 5), the “inhibition of phase 1 pain” value is “did not” and the “inhibition of phase 2 pain” value is “inhibited the phase 2 pain, but the degree of inhibition was low compared with that by lactoferrin”. Besides, the “duration of pain inhibiting effect after formalin injection” value in assay [3] (FIGS. 7 and 8) is “about 50 minutes”.

As for `CC(C)Cc1ccc(C(C)C(=O)O)cc1` (centres unmarked) [ibuprofen], in assay [2], the “response to earlier treatment” value is “failed to respond”.

As for `CN1CC[C@]23c4c5ccc(O)c4O[C@H]2[C@@H](O)C=C[C@H]3[C@H]1C5` [morphine, reference compound], in assay [4], the “phase 1 pain (number of foot-lifting times)” value is reported as “inhibits” and the “phase 2 pain (number of foot-lifting times)” value is “inhibits”.
